Experimental data published in patent US20260240851A1, “Treatment of Parkinson's Disease in a Patient Using a Glucocerebrosidase Activator” (BIAL - R&D Investments, S.A., priority 2023, published 2026).
Like-named read-outs stand apart in the source and are kept apart here.

What was measured:
[1] = LTI-291-001 single ascending dose study: plasma pharmacokinetics and food effect; assay type: in vivo, human; settings: for Vd/F: read-out: Vz/F
Protocol: This study was a first-in-human Phase 1, randomized, double-blind, placebo-controlled, single-ascending dose study to evaluate the safety and tolerability, PK, and PD of escalating single oral doses of Compound A (3, 10, 30, and 90 mg) in 4 cohorts of healthy subjects. A total of 32 subjects received a single oral dose of Compound A (8 per dose group) and 8 subjects received placebo. The effect of food on the PK of Compound A was evaluated by administering a second single oral dose of 10 mg Compound A to the subjects in Cohort 2 on a separate occasion, after subjects had completed a high-fat breakfast. Blood samples for Compound A PK were collected up to 48 hours after each dose.

[2] = LTI-291-003: safety and tolerability; assay type: in vivo, human
Text: This study was a Phase 1b, randomized, double-blind, placebo-controlled, multiple oral dose study of Compound A in 40 subjects (aged 40 to 80 years) with GBA-PD. Approximately 50% of the enrolled subjects had major (loss of 30%-50% total activity) mutations in GCase and 50% had polymorphism mutation (loss of 10%-20% of total activity) mutations in GCase. The objectives of this study were to investigate the safety, tolerability, and PK of multiple once-daily oral administration of Compound A and to explore the accompanying pharmacodynamic changes in subjects with GBA-PD with major and polymorphism mutations. Subjects received once-daily oral doses of 10 mg (n=10), 30 mg (n=10), or 60 mg (2×30 mg capsules) (n=10) Compound A or placebo (n=10) for 28 consecutive days.

[3] = LTI-291-004: safety and tolerability; assay type: in vivo, human
Protocol: This study was a Phase 1B, randomized, double-blind, placebo-controlled, multiple oral dose study of Compound A in 14 subjects (aged 51 to 81 years) with GBA-PD. The objectives of this study were to investigate the safety, tolerability, and PK of multiple once-daily oral administration of Compound A and to explore the accompanying pharmacodynamic changes. Subjects received once-daily oral doses of 10 mg (n=6) or 60 mg (2×30 mg capsules) (n=6) Compound A or placebo (n=2) for 28 consecutive days. PK samples were measured once on Day 7 and Day 14 and 4 times after the last dose on Day 28. Plasma concentrations were summarized at each time point, and no PK parameters were estimated. The PD evaluations included fMRI measures; FDG-PET to determine the metabolic rate of glucose in specific regions of the brain; and functional outcome measures (MDS-UPDRS Part III and the MMSE). GluCer, GluSph, and LacCer and other sphingolipids were measured in PBMCs and plasma as biomarkers of pharmacological effect.

[4] = BIA 28-6156-106: safety and tolerability; assay type: in vivo, human
Protocol: This was a Phase 1, single-dose, mass balance recovery study of ^14C-Compound A in 1 cohort of healthy male subjects, aged 30 to 65 years. A total of 6 subjects received a single oral dose of 60 mg Compound A, containing not more than 3.7 MBq ^14C, under fasted conditions. Objectives included determining the routes and rates of elimination of ^14C-Compound A, identifying the structure of metabolites that account for more than 10% of circulating total radioactivity in plasma and total radioactive dose in urine and feces, exploring the PK of Compound A, evaluating the extent of distribution of TR into blood cells, and gathering additional safety and tolerability information for Compound A.

[5] = BIA 28-6156-107 DDI: effect of multiple-dose carbamazepine on single-dose PK of Compound A; assay type: in vivo, human; settings: for Tmax / half-life: both sexes, human, in vivo, oral; for Tmax: read-out: Median Tmax; for half-life: read-out: geometric mean t1/2 (converted)
[6] = BIA 28-6156-110 DDI, rosuvastatin portion; assay type: in vivo, human; settings: after 6 days of dosing with 60 mg, rosuvastatin portion
Protocol: In Cohort 1, a single oral dose of 10 mg rosuvastatin was administered alone on Day 1. No drug was administered on Day 2. From Day 3 to Day 8, a single daily dose of 60 mg Compound A was administered.

[7] = J. M den Heijer, 2021; cited from earlier work
[8] = BIA 28-6156-105: safety and tolerability
[9] = 3 mg fasted, single oral dose, geometric mean
[10] = 10 mg fasted, single oral dose, geometric mean
[11] = 10 mg fed, single oral dose, geometric mean
[12] = 10 mg, high-fat breakfast vs fasted
[13] = 30 mg fasted, single oral dose, geometric mean
[14] = 90 mg fasted, single oral dose, geometric mean
[15] = human, plasma, po, 3 mg, 3 mg fasted, single oral dose, geometric mean
[16] = human, plasma, po, 10 mg, 10 mg fasted, single oral dose, geometric mean
[17] = human, plasma, po, 10 mg, 10 mg fed, single oral dose, geometric mean
[18] = human, plasma, po, 30 mg, 30 mg fasted, single oral dose, geometric mean
[19] = human, plasma, po, 90 mg, 90 mg fasted, single oral dose, geometric mean
[20] = Compound A + carbamazepine vs Compound A alone
[21] = 60 mg Compound A administered alone

SMILES: CCCCCO[C@H]1CC[C@H](NC(=O)c2cnn3c(C)cc(C)nc23)CC1 [Compound A, 5,7-dimethyl-N-((1S*,4S)-4-(pentyloxy)cyclohexyl)pyrazolo[1,5-a]pyrimidine-3-carboxamide]
- AUC0-inf/dose [1, 9]: 754 ng·h/mL/mg
- Cmax/dose [1, 9]: 36.4 ng/mL/mg
- AUC0-inf/dose [1, 10]: 756 ng·h/mL/mg
- Cmax/dose [1, 10]: 32.8 ng/mL/mg
- Tmax ([1]; 10 mg fasted, single oral dose, median): 1.01 h
- AUC0-inf/dose [1, 11]: 853 ng·h/mL/mg
- Cmax/dose [1, 11]: 23.4 ng/mL/mg
- ratio of geometric means fed to fasting, AUC0-inf [1, 12]: 111%
- ratio of geometric means fed to fasting, AUC0-last [1, 12]: 103%
- ratio of geometric means fed to fasting, Cmax [1, 12]: 71.3%
- AUC0-inf/dose [1, 13]: 821 ng·h/mL/mg
- Cmax/dose [1, 13]: 32.0 ng/mL/mg
- AUC0-inf/dose [1, 14]: 704 ng·h/mL/mg
- Cmax/dose [1, 14]: 29.4 ng/mL/mg
- total exposure (Cmax and AUC0-inf) versus dose ([1]; entire dose range 3-90 mg): increase in a dose proportional manner
- half-life ([1]; human, plasma, oral, across fasted and fed groups, read-out: Geometric mean t1/2): 21.2 to 23.4 h
- Tmax ([1]; human, plasma, oral, single dose 3-90 mg, fasted, medians across dose groups, read-out: median Tmax): 1 to 3 h
- Tmax ([1]; human, plasma, oral, single dose 3-90 mg, fasted, minimum to maximum, read-out: Tmax, range): 1 to 8.2 h
- AUC(0-inf) [1, 15]: 2260 ng·h/mL
- AUC(0-t) [1, 15]: 1560 ng·h/mL
- Cmax [1, 15]: 109 ng/mL
- Vd/F [1, 15]: 40.5 L
- half-life ([1]; human, plasma, po, 3 mg, 3 mg fasted, single oral dose, geometric mean, read-out: t1/2 (converted)): 21.2 h
- Tmax ([1]; human, plasma, po, 3 mg, 3 mg fasted, single oral dose, median, read-out: Tmax): 1.48 h
- AUC(0-inf) [1, 16]: 7560 ng·h/mL
- AUC(0-t) [1, 16]: 5690 ng·h/mL
- Cmax [1, 16]: 328 ng/mL
- Vd/F [1, 16]: 42.4 L
- half-life ([1]; human, plasma, po, 10 mg, 10 mg fasted, single oral dose, geometric mean, read-out: t1/2 (converted)): 22.2 h
- Tmax ([1]; human, plasma, po, 10 mg, 10 mg fasted, single oral dose, median, read-out: Tmax): 1 h
- AUC(0-inf) [1, 17]: 8530 ng·h/mL
- AUC(0-t) [1, 17]: 5860 ng·h/mL
- Cmax [1, 17]: 234 ng/mL
- Vd/F [1, 17]: 39.6 L
- half-life ([1]; human, plasma, po, 10 mg, 10 mg fed, single oral dose, geometric mean, read-out: t1/2 (converted)): 23.4 h
- Tmax ([1]; human, plasma, po, 10 mg, 10 mg fed, single oral dose, median, read-out: Tmax): 8 h
- AUC(0-inf) [1, 18]: 24600 ng·h/mL
- AUC(0-t) [1, 18]: 18400 ng·h/mL
- Cmax [1, 18]: 961 ng/mL
- Vd/F [1, 18]: 40.8 L
- half-life ([1]; human, plasma, po, 30 mg, 30 mg fasted, single oral dose, geometric mean, read-out: t1/2 (converted)): 23.2 h
- Tmax ([1]; human, plasma, po, 30 mg, 30 mg fasted, single oral dose, median, read-out: Tmax): 3.02 h
- AUC(0-inf) [1, 19]: 63400 ng·h/mL
- AUC(0-t) [1, 19]: 47800 ng·h/mL
- Cmax [1, 19]: 2640 ng/mL
- Vd/F [1, 19]: 47.7 L
- half-life ([1]; human, plasma, po, 90 mg, 90 mg fasted, single oral dose, geometric mean, read-out: t1/2 (converted)): 23.3 h
- Tmax ([1]; human, plasma, po, 90 mg, 90 mg fasted, single oral dose, median, read-out: Tmax): 2 h
- deaths, SAEs, severe AEs, discontinuations due to AEs ([2]; 10-60 mg daily for 28 days, GBA-PD): No deaths, other SAEs, severe AEs, or discontinuations due to AEs
- vital signs, laboratory safety assessments, ECG parameters ([2]; 28 days): no clinically significant safety observations
- AE back pain, patients ([2]; all Compound A groups): 13.3%
- AE fatigue, patients ([2]; all Compound A groups): 16.7%
- AE headache, subjects ([2]; all Compound A groups): 13.3%
- AE worsening of Parkinson's disease symptoms, subjects ([2]; all Compound A groups): 13.3%
- deaths, SAEs, severe AEs ([3]; 10 or 60 mg daily for 28 days): No deaths, other SAEs, or severe AEs
- relatedness of AEs to study treatment ([3]; in vivo): None of the AEs were considered related to the study treatment
- vital signs, laboratory safety assessments, physical examinations, ECG parameters ([3]; in vivo): no clinically significant safety observations
- vital signs, laboratory safety assessments, ECG parameters ([4]; in vivo): no clinically significant safety observations
- relatedness of AEs ([4]; investigator assessment): unrelated to the IMP
- deaths, SAEs, severe AEs, discontinuations due to AEs ([4]; single 60 mg dose): No deaths, other SAEs, severe AEs, or discontinuations due to AEs
- subjects reporting mild headaches ([4]; single 60 mg dose): 33.3%
- subjects reporting moderate tinea cruris ([4]; single 60 mg dose): 16.7%
- subjects reporting AEs ([4]; single 60 mg dose, 6 subjects): 50.0%
- AUC0-inf ratio of geometric least squares means (point estimate) [5, 20]: 0.363
- AUC0-last ratio of geometric least squares means (point estimate) [5, 20]: 0.367
- Cmax ratio of geometric least squares means (point estimate) [5, 20]: 0.877
- Tmax [5, 21]: 1 h
- half-life [5, 21]: 28 h
- Tmax ([5]; 60 mg Compound A coadministered with carbamazepine): 2 h
- half-life ([5]; Compound A coadministered with carbamazepine): 12 h
- reduction of AUC0-inf ([5]; with carbamazepine vs alone): 64%
- reduction of AUC0-last ([5]; with carbamazepine vs alone): 63%
- reduction of Cmax ([5]; with carbamazepine vs alone): approximately 12%
- steady state concentrations of Compound A [6]: appeared not to have been reached
- safety and tolerability in healthy humans [7]: generally well tolerated
- laboratory values considered related to Compound A ([8]; after 150 mg Compound A): increased ALT and increased GGT in 1 subject
- deaths or other SAEs ([8]; in vivo): No deaths or other SAEs
- TEAEs considered related to Compound A 150 mg ([8]; reported in 2 subjects): 4 of 90 TEAEs
